# In patent US20230090446A1, “ANTISENSE OLIGONUCLEOTIDE TARGETING LINC00518 FOR TREATING MELANOMA” (UNIVERSITE DE STRASBOURG, priority 2020, published 2023):
# Test system: LINC00518
# Assay: LINC00518 expression by RT-qPCR in cells treated with MAPK pathway inhibitors
# Conditions: 501Mel and A375 cells, between 12-72 hours after treatment
# Procedure: Activated Caspase 3 was measured by FACS.
# Samples were taken at the indicated time points, total RNA was extracted, retrotranscribed and analyzed by qPCR for LINC00518 expression. B. LINC00518 RNA levels were quantified from scRNAseq of melanoma patient derived xenotransplants (PDXs) treated with Dabrafenib and Trametinib (GSE116237). […] LINC00518 RNA levels were quantified from RNA sequencing of melanoma patients treated with Durvalumab and Trametinib for 15 days (GSE158403). […] Cytoplasmic and mitochondrial RNA fractions were extracted, retrotranscribed and analyzed by qPCR for LINC00518 expression. […] Oxygen consumption rate (OCR) was measured using Agilent Seahorse. Basal and Maximal OCR and reserve capacity were calculated on the basis of OCR changes upon oligomycin (oligo), FCCP and Rotenone A (RotA) administration to the cells.
# Total mRNA isolation was performed using the Genelute Mammalian Total RNA Miniprep Kit (Sigma) following manufacturer instructions, or using Trizol and isopropanol precipitation. […] Total and fractionated RNAs were treated with DNAsel following the TurboDnase free kit instructions (Thermofisher) and reversed transcribed using Superscript IV reverse transcriptase (Thermofisher) following manufacturer instructions. qRT-PCR was carried out with SYBR Green I (Roche) and monitored by a LightCycler 480 (Roche). […]
smiles,measurement,value
CC(C)(C)c1nc(-c2cccc(NS(=O)(=O)c3c(F)cccc3F)c2F)c(-c2ccnc(N)n2)s1 [Dabrafenib],LINC00518 expression,up-regulation
